The assay concerns the target Bis(5'-adenosyl)-triphosphatase (Homo sapiens, UniProt P49789). As to the kind of experiment: Enzyme Inhibition Assay. The source says: Inhibition assay using Fhit with ApppBODIPY.

Chain of Bis(5'-adenosyl)-triphosphatase (P49789 whole entry): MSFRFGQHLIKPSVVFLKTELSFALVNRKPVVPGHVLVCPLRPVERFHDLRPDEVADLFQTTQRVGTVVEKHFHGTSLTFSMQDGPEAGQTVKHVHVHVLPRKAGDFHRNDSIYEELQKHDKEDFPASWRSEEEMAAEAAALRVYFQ

For orientation: Ki means the dissociation constant of the complex between target and ligand, obtained from inhibition or displacement. A higher Ki goes with lower affinity. In turn, `Nc1ncnc2c1ncn2C1OC(COP(=O)(S)OCCOP(O)(=S)OCC2OC(n3cnc4c(N)ncnc43)C(O)C2O)C(O)C1O` (stereo unspecified) [AppppA analog, 2 (X=S)] had a Ki of 2600 nM.
With `Nc1ncnc2c1ncn2C1OC(COP(=O)(S)OC(C(=O)O)C(OP(O)(=S)OCC2OC(n3cnc4c(N)ncnc43)C(O)C2O)C(=O)O)C(O)C1O` (stereo unspecified) [AppppA analog, 3 (X=S)], the inhibition constant Ki was determined as 86000 nM.
The result for `Nc1ncnc2c1ncn2C1OC(COP(=O)(S)OCC(O)C(O)COP(O)(=S)OCC2OC(n3cnc4c(N)ncnc43)C(O)C2O)C(O)C1O` (stereo unspecified) [AppppA analog, 4 (X=S)] reads 86000 nM.
The figure for `Nc1ncnc2c1ncn2C1O[C@H](COP(=O)(O)OCP(O)(O)=COP(=O)(O)OCC2O[C@@H](n3cnc4c(N)ncnc43)[C@H](O)[C@@H]2O)[C@@H](O)[C@H]1O` (stereo partly specified) [AppppA analog, 5 (X=O)] is 1500 nM; for `Nc1ncnc2c1ncn2C1O[C@H](COP(O)(=S)OC=P(O)(O)COP(=O)(S)OCC2O[C@@H](n3cnc4c(N)ncnc43)[C@H](O)[C@@H]2O)[C@@H](O)[C@H]1O` (stereo partly specified) [AppppA analog, 5 (X=S)] it is 220 nM.
The result for `Nc1ncnc2c1ncn2C1O[C@H](COP(=O)(O)OCC(O)COP(=O)(O)OCC2O[C@@H](n3cnc4c(N)ncnc43)[C@H](O)C2O)[C@@H](O)[C@H]1O` (stereo partly specified) [AppppA analog, 6 (X=O)] reads 4700 nM; that for `CC(COP(=O)(S)OCC1OC(n2cnc3c(N)ncnc32)C(O)C1O)COP(O)(=S)OCC1OC(n2cnc3c(N)ncnc32)C(O)C1O` (stereo unspecified) [AppppA analog, 7 (X=S)], 76000 nM.
For `Nc1ncnc2c1ncn2C1OC(COP(=O)(S)OCC(N)COP(O)(=S)OCC2OC(n3cnc4c(N)ncnc43)C(O)C2O)C(O)C1O` (stereo unspecified) [AppppA analog, 8 (X=S)], the Ki was 3000 nM.
The figure for `Nc1ncnc2c1ncn2C1OC(COP(=O)(S)OCCCOP(O)(=S)OCC2OC(n3cnc4c(N)ncnc43)C(O)C2O)C(O)C1O` (stereo unspecified) [AppppA analog, 9 (X=S)] is 230 nM; for `Nc1ncnc2c1ncn2C1O[C@H](COP(=O)(S)NCCCNP(O)(=S)OCC2O[C@@H](n3cnc4c(N)ncnc43)[C@H](O)[C@@H]2O)[C@@H](O)[C@H]1O` (stereo partly specified) [AppppA analog, 10 (X=S)] it is 3300 nM; for `Nc1ncnc2c1ncn2C1OC(COP(=O)(S)SCCCSP(O)(=S)OCC2OC(n3cnc4c(N)ncnc43)C(O)C2O)C(O)C1O` (stereo unspecified) [AppppA analog, 11 (X=S)] it is 5200 nM.
As for `Nc1ncnc2c1ncn2C1OC(COP(=O)(O)OCC(COP(=O)(O)O)(COP(=O)(O)OCC2O[C@@H](n3cnc4c(N)ncnc43)[C@H](O)[C@@H]2O)COP(=O)(O)OC[C@H]2OC(n3cnc4c(N)ncnc43)[C@H](O)[C@@H]2O)[C@H](O)[C@@H]1O` (stereo partly specified) [AppppA analog, 12 (X=O)], the affinity, expressed as Ki, was 1500 nM.
The figure for `Nc1ncnc2c1ncn2C1OC(COP(=O)(O)OCC(COP(=O)(O)OCC2O[C@@H](n3cnc4c(N)ncnc43)[C@H](O)[C@@H]2O)(COP(=O)(O)OCC2O[C@@H](n3cnc4c(N)ncnc43)[C@H](O)[C@@H]2O)COP(=O)(O)OC[C@H]2OC(n3cnc4c(N)ncnc43)[C@H](O)[C@@H]2O)[C@H](O)[C@@H]1O` (stereo partly specified) [AppppA analog, 13 (X=O)] is 3200 nM.
In the case of `Nc1ncnc2c1ncn2C1OC(COP(=O)(S)OCC(COP(=O)(S)OCC2OC(n3cnc4c(N)ncnc43)C(O)C2O)(COP(=O)(S)OCC2OC(n3cnc4c(N)ncnc43)C(O)C2O)COP(O)(=S)OCC2OC(n3cnc4c(N)ncnc43)C(O)C2O)C(O)C1O` (stereo unspecified) [AppppA analog, 13 (X=S)], the affinity, expressed as Ki, was 65 nM.
Compound `Nc1ncnc2c1ncn2C1O[C@H](COP(=O)(O)OCC(COP(=O)(O)O)(COP(=O)(O)O)COP(=O)(O)OCC2O[C@@H](n3cnc4c(N)ncnc43)[C@H](O)[C@@H]2O)[C@@H](O)[C@H]1O` (stereo partly specified) [AppppA analog, 14 (X=O)] displayed a Ki of 900 nM.
The figure for `Nc1ncnc2c1ncn2C1OC(COP(=O)(S)OCC(COP(=O)(O)S)(COP(=O)(O)S)COP(O)(=S)OCC2OC(n3cnc4c(N)ncnc43)C(O)C2O)C(O)C1O` (stereo unspecified) [AppppA analog, 14 (X=S)] is 700 nM; for `Nc1ncnc2c1ncn2C1O[C@H](COP(=O)(O)OCC(COP(=O)(O)OCC2O[C@@H](n3cnc4c(N)ncnc43)[C@H](O)[C@@H]2O)OP(=O)(O)OC[C@H]2OC(n3cnc4c(N)ncnc43)[C@H](O)[C@@H]2O)[C@@H](O)[C@H]1O` (stereo partly specified) [AppppA analog, 15 (X=O)] it is 1500 nM; for `Nc1ncnc2c1ncn2C1OC(COP(=O)(S)OCC(COP(O)(=S)OCC2OC(n3cnc4c(N)ncnc43)C(O)C2O)OP(=O)(S)OCC2OC(n3cnc4c(N)ncnc43)C(O)C2O)C(O)C1O` (stereo unspecified) [AppppA analog, 15 (X=S)] it is 78 nM.
The figure for `Nc1ncnc2c1ncn2C1O[C@H](COP(=O)(S)NCC(CNP(O)(=S)OCC2O[C@@H](n3cnc4c(N)ncnc43)[C@H](O)[C@@H]2O)OP(=O)(S)OC[C@H]2OC(n3cnc4c(N)ncnc43)[C@H](O)[C@@H]2O)[C@@H](O)[C@H]1O` (stereo partly specified) [AppppA analog, 16 (X=S)] is 2700 nM; for `Nc1ncnc2c1ncn2C1O[C@H](COP(=O)(O)OCC(COP(=O)(O)OCC2O[C@@H](n3cnc4c(N)ncnc43)[C@H](O)[C@@H]2O)OP(=O)(O)O)[C@@H](O)[C@H]1O` (stereo partly specified) [AppppA analog, 17 (X=O)] it is 420 nM; for `Nc1ncnc2c1ncn2C1OC(COP(=O)(S)OCC(COP(O)(=S)OCC2OC(n3cnc4c(N)ncnc43)C(O)C2O)OP(=O)(O)S)C(O)C1O` (stereo unspecified) [AppppA analog, 17 (X=S)] it is 110 nM.

For the origin of these results see BindingDB's records for doi:10.1186/1472-6769-1-3 (Kimmel Cancer Center, 2001).
